Measured values from patent US10138232B2, “Naphthyridinedione derivatives” (NOVARTIS AG, priority 2014, dated 2018).

System: CFTR-Y122X (GFP-CFTR-Y122X-Renilla construct) in Hek293 cell lines
Experiment: CFTR-Y122X assay (dual reporter readthrough, Renilla luminescence)
Type: cell-based
Conditions: Homo sapiens, compounds incubated 24 h, tested up to 100 μM; for AC50: nonsense mutation suppression in the CFTR-Y122X assay; for Emax: nonsense mutation suppression, 100% activity = 14 mM paromomycin, read-out: Amax
Text: In particular, compounds of formula (I), (I′), (Ia), (Ia′) or (Ib) I act as nonsense mutation suppressors on frequent PTCs, e.g. on Y122X in the mRNA of the cystic fibrosis conductance regulator protein (CFTR). This can be determined in vitro, for example, using cell lines expressing GFP-CFTR-Y122X-Renilla constructs as described herein.
Activity of compounds of the present invention was examined in recombinant, dual reporter isogenic Hek293 cell lines (“CFTR-Y122X assay”). The engineered reporter constructs contained the 18 bp sequence strech corresponding to a common Y122X PTC mutation in CFTR class I mutant patients (see Sermet-Gaudelus, BMC Medicine, 2007, 5(5)). Instead of a tyrosine (Y) in position 122 of the CFTR protein a TGA stop codon interrupts the open reading frame (Y122X) of the corresponding mRNA. This TGA stop codon triplet (followed by the pyrimidine base cytosine) is permissive to aminoglycoside mediated translational readthrough which served as positive control for high throughput screening. A corresponding TAA stop codon variant and a wildtype non mutated construct was used for confirmation and counter screening. The CFTR sequence was sandwiched between an eGFP reporter, and a triple myc tag sequence fused to a full length Renilla reporter. All sequences, including an intron containing one positioned pre-eGFP (b-globin intron) were cloned in frame. The corresponding expression constructs were stably expressed in the isogenic HEK-R4 cell host (Invitrogen Incorp.) and selected by blasticidin resistance. The isogenic integration of the construct minimizes gene dose effects and improves assay reproducibility. Stably integrated single cell derived clones were selected and characterized for aminoglycoside mediated readthrough. […] Readthrough of Y122X accumulates an intracellular localized fusion protein approximately 65.5 kDa in size as controlled by western blot analysis and immunofluorescence using an anti-renilla antibody. The eGFP reporter pre-PTC mutation serves as visual control for genetic stability of the screening clones and minimizes protein degradation of small fusion protein amounts. In the assay, compound concentration was 10 μM. In miniaturized 1536 well format 2000 cells were dispensed in 4 μl/well and incubated for 24 h at 37° C., 5% CO2. 40 nl compounds were placed on the cells with control wells containing 1 ul Paramomycin and 14.4 mM final concentration. Compounds were incubated for 24 h. Renilla Glo substrate (2.5 ul) was added and plates were centrifuged and processed for luminescence measurement using various readers. Activity calculation was done using the equation: A1(%)=100*(S−NC)/(AC−NC) where AC, NC and S correspond to active controls (injection of Stimulation buffer=100% stimulation), neutral controls (buffer injection which Iloprost EC10) and screening samples (S). NC corresponds to 0% activity whereas AC is 100% activity (14 mM paromomycin). False positive artefacts were removed in confirmation and validation screening using the same assay format followed by counterscreening using the respective wildtype construct (w/o PTC mutation) cell model. Compounds were tested up to 100 μM compound concentration.

SMILES | AC50 [µM] | Emax [%]
Cc1ccc2c(c1)c(=O)c1c(=O)n(-c3ccccc3)c(C(C)C)cc1n2C [Example 1.10, 3-isopropyl-5,8-dimethyl-2-phenylbenzo[b][1,6]naphthyridine-1,10(2H,5H)-dione] | 7.3 | 409
O=c1c2ccccc2[nH]c2cc(C3CCC3)n(-c3ccccn3)c(=O)c12 [Example 2.5, 3-cyclobutyl-2-(pyridin-2-yl)benzo[b][1,6]naphthyridine-1,10(2H,5H)-dione] | 2.7 | 217
CC(C)c1cc2c(c(=O)c3ccccc3n2C)c(=O)n1-n1cccc1 [Example 2.18, 3-isopropyl-5-methyl-2-(1H-pyrrol-1-yl)benzo[b][1,6]naphthyridine-1,10(2H,5H)-dione] | 17.6 | 75
COc1cccc2c(=O)c3c(=O)n(-c4ccccc4)c(C4CCC4)cc3n(C)c12 [Example 1.46, 3-cyclobutyl-6-methoxy-5-methyl-2-phenylbenzo[b][1,6]naphthyridine-1,10(2H,5H)-dione] | 3.4 | 247
CC(C)c1cc2c(c(=O)c3ccccc3n2C)c(=O)n1-c1ccccn1 [Example 2.10, 3-isopropyl-5-methyl-2-(pyridin-2-yl)benzo[b][1,6]naphthyridine-1,10(2H,5H)-dione] | 10 | 177
CC(C)c1c(Cl)c2c(c(=O)c3ccccc3n2C)c(=O)n1-c1ccccc1 [Example 3.2, 4-chloro-3-isopropyl-5-methyl-2-phenylbenzo[b][1,6]naphthyridine-1,10(2H,5H)-dione] | 17.2 | 220
CC(C)c1cc2[nH]c3ccccc3c(=O)c2c(=O)n1N1CCCC1 [Example 2.11, 3-isopropyl-2-(pyrrolidin-1-yl)benzo[b][1,6]naphthyridine-1,10(2H,5H)-dione] | 0.9 | 
CC(C)c1cc2[nH]c3ccc(F)cc3c(=O)c2c(=O)n1-c1ccccc1 [Example 1.5, 8-fluoro-3-isopropyl-2-phenylbenzo[b][1,6]naphthyridine-1,10(2H,5H)-dione] | 1.8 | 358
COc1ccc2[nH]c3cc(C(C)C)n(-c4ccccc4)c(=O)c3c(=O)c2c1 [Example 1.50, 3-isopropyl-8-methoxy-2-phenylbenzo[b][1,6]naphthyridine-1,10(2H,5H)-dione] | 16.9 | 110
CC(C)c1cc2[nH]c3ccsc3c(=O)c2c(=O)n1-c1ccccc1 [Example 1.16, 6-isopropyl-7-phenylthieno[3,2-b][1,6]naphthyridine-8,9(4H,7H)-dione] | 1.6 | 344
CC(C)c1cc2[nH]c3ccc(Cl)cc3c(=O)c2c(=O)n1-c1ccccc1 [Example 1.7, 8-chloro-3-isopropyl-2-phenylbenzo[b][1,6]naphthyridine-1,10(2H,5H)-dione] | 2.4 | 215
COc1cccc2c(=O)c3c(=O)n(-c4ccccc4)c(C(C)C)cc3[nH]c12 [Example 1.47, 3-isopropyl-6-methoxy-2-phenylbenzo[b][1,6]naphthyridine-1,10(2H,5H)-dione] | 5.2 | 312
Cc1ccc2c(c1)c(=O)c1c(=O)n(-c3ccccc3)c(C3CCC3)cc1n2C [Example 1.38, 3-cyclobutyl-5,8-dimethyl-2-phenylbenzo[b][1,6]naphthyridine-1,10(2H,5H)-dione] | 2.3 | 215
O=c1c2c([nH]c3cc(C4CCC4)n(-c4ccccc4)c(=O)c13)CCCC2 [Example 1.30, 3-cyclobutyl-2-phenyl-6,7,8,9-tetrahydrobenzo[b][1,6]naphthyridine-1,10(2H,5H)-dione] | 0.7 | 324
CC(C)c1cc2c(c(=O)c3sccc3n2C)c(=O)n1-c1ccccc1 [Example 1.17, 6-isopropyl-4-methyl-7-phenylthieno[3,2-b][1,6]naphthyridine-8,9(4H,7H)-dione] | 9.2 | 430
Cc1cc2c(=O)c3c(=O)n(-c4ccccc4)c(C(C)C)cc3[nH]c2s1 [Example 1.14, 7-isopropyl-2-methyl-6-phenylthieno[2,3-b][1,6]naphthyridine-4,5(6H,9H)-dione] |  | 35

SMILES | AC50 [µM] | Emax [%]
CC(C)c1cc2c(c(=O)c3cccc4c3n2CC4)c(=O)n1-c1ccccc1 [Example 1.11, 9-isopropyl-8-phenyl-1H-indolo[1,7-ab][1,6]naphthyridine-6,7(2H,8H)-dione] | 4 | 276
CC(C)c1cc2[nH]c3sccc3c(=O)c2c(=O)n1-c1ccccc1 [Example 1.12, 7-isopropyl-6-phenylthieno[2,3-b][1,6]naphthyridine-4,5(6H,9H)-dione] | 19 | 248
Cc1ccc2[nH]c3cc(C4CCC4)n(-c4ccccc4)c(=O)c3c(=O)c2c1 [Example 1.41, 3-cyclobutyl-8-methyl-2-phenylbenzo[b][1,6]naphthyridine-1,10(2H,5H)-dione] | 0.5 | 223
CC(C)c1cc2[nH]c3ccccc3c(=O)c2c(=O)n1C1CCCC1 [Example 2.3, 2-cyclopentyl-3-isopropylbenzo[b][1,6]naphthyridine-1,10(2H,5H)-dione] | 0.4 | 235
CC(C)c1cc2[nH]c3ccccc3c(=O)c2c(=O)n1N1CCCCC1 [Example 2.13, 3-isopropyl-2-(piperidin-1-yl)benzo[b][1,6]naphthyridine-1,10(2H,5H)-dione] | 1.8 | 265
Cc1csc2c(=O)c3c(=O)n(-c4ccccc4)c(C(C)C)cc3[nH]c12 [Example 1.20, 6-isopropyl-3-methyl-7-phenylthieno[3,2-b][1,6]naphthyridine-8,9(4H,7H)-dione] | 2.5 | 183
Cn1c2ccc(F)cc2c(=O)c2c(=O)n(-c3ccccc3)c(C3CCC3)cc21 [Example 1.39, 3-cyclobutyl-8-fluoro-5-methyl-2-phenylbenzo[b][1,6]naphthyridine-1,10(2H,5H)-dione] | 1.2 | 239
Cn1c2ccsc2c(=O)c2c(=O)n(-c3ccccc3)c(C3CCC3)cc21 [Example 1.34, 6-cyclobutyl-4-methyl-7-phenylthieno[3,2-b][1,6]naphthyridine-8,9(4H,7H)-dione] | 1 | 263
CC(C)c1cc2c(c(=O)c3ccccc3n2C)c(=O)n1-c1ccccc1 [Example 1.4, 3-isopropyl-5-methyl-2-phenylbenzo[b][1,6]naphthyridine-1,10(2H,5H)-dione] | 3.2 | 324
Cn1c2c(c(=O)c3c(=O)n(-c4ccccc4)c(C4CCC4)cc31)CCC2 [Example 1.24, 3-cyclobutyl-5-methyl-2-phenyl-5,6,7,8-tetrahydro-1H-cyclopenta[b][1,6]naphthyridine-1,9(2H)-dione] | 18.4 | 157
CC(C)c1c(Cl)c2[nH]c3ccccc3c(=O)c2c(=O)n1-c1ccccc1 [Example 3.1, 4-chloro-3-isopropyl-2-phenylbenzo[b][1,6]naphthyridine-1,10(2H,5H)-dione] | 3.2 | 211
CC(C)c1cc2c(c(=O)c3ccccc3n2C)c(=O)n1N1CCCCC1 [Example 2.14, 3-isopropyl-5-methyl-2-(piperidin-1-yl)benzo[b][1,6]naphthyridine-1,10(2H,5H)-dione] | 1.7 | 271
CC(C)c1c(Br)c2c(c(=O)c3ccccc3n2C)c(=O)n1-c1ccccc1 [Example 3.3, 4-bromo-3-isopropyl-5-methyl-2-phenylbenzo[b][1,6]naphthyridine-1,10(2H,5H)-dione] | 18.8 | 122
Cc1cc2c(s1)c(=O)c1c(=O)n(-c3ccccc3)c(C3CCC3)cc1n2C [Example 1.36, 6-cyclobutyl-2,4-dimethyl-7-phenylthieno[3,2-b][1,6]naphthyridine-8,9(4H,7H)-dione] | 4.1 | 177
CC(C)c1cc2[nH]c3c(c(=O)c2c(=O)n1-c1ccccc1)CCC3 [Example 1.23, 3-isopropyl-2-phenyl-5,6,7,8-tetrahydro-1H-cyclopenta[b][1,6]naphthyridine-1,9(2H)-dione] | 5.2 | 414
